Earlier results as cited in patent US9168226B1, “Injectable particle” (priority 2015, dated 2015).
Values after ≈ are worked out from the molar mass of the structure shown. Where two headings read alike, the source gives them in different places.

aqueous solubility (pH 2.6): 18400 µg/mL (≈ 37.7 mM)
aqueous solubility (pH 6.0): 8 µg/mL (≈ 0.0164 mM)
SMILES: Cc1nc(Nc2ncc(C(=O)Nc3c(C)cccc3Cl)s2)cc(N2CCN(CCO)CC2)n1 [dasatinib, Dasatinib]
